Target: E. coli Alkaline Phosphatase (AP) (Escherichia coli, UniProt P00634)
Assay type: biochemical
Conditions: pH 8

E. coli Alkaline Phosphatase (AP), sequence (P00634 22-471): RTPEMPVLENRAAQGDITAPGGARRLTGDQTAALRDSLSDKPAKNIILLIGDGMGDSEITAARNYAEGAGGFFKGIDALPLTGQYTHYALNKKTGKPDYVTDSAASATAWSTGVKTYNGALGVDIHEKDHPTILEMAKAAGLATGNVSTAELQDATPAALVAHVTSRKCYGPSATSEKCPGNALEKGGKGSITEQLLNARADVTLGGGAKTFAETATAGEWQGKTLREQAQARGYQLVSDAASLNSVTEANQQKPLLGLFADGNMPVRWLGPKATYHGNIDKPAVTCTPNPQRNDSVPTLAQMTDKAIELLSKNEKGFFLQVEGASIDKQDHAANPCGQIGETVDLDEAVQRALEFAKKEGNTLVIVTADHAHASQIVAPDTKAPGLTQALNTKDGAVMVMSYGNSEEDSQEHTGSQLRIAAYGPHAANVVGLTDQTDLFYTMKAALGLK

With `O=S(=O)(O)O` [sulfate] the “differential binding energy between Pi and sulfate binding” value was “at least 8.5 kcal/mol” and the “inhibition of AP by sulfate” value was “No significant inhibition”.

From article PMC3152580 (Journal of the American Chemical Society, 2011)
